The record followed here is patent US8895313B2, “Ligands for aggregated tau molecules” (Wista Laboratories Ltd., priority 2008, dated 2014).

Sequence of PHF (paired helical filaments) isolated from the brain of an Alzheimer's disease patient (P10636 623-708 limits assumed): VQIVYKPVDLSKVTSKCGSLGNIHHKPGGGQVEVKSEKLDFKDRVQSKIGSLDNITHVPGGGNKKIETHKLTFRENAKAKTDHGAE

The target of one assay is PHF (paired helical filaments) isolated from the brain of an Alzheimer's disease patient (Homo sapiens, UniProt P10636). As to the kind of experiment: Competitive binding assay: displacement of primulin fluorescence from PHFs. On the set-up: key to P50: fl indicates that the compound is fluorescent. Consequently, binding levels for the compound in the competition binding assay cannot be determined by fluorescent spectroscopy. Particulars: compound fluorescent, no P50 obtainable. The procedure:
The DSB compounds were tested for their ability to bind to PHF in a competition-style assay.
If a test compound that also binds to PHFs with the same or greater affinity is added, it will displace the reference ligand and reduce the fluorescence signal. In the present assay, the reference compound is primulin, which was added at 1 μM. Test compounds were added at concentrations from 0.05 to 1 μM. The P50 for a test compound is defined as the concentration of compound that reduces the primulin signal to 50% of the control value. This value is, therefore, not an absolute affinity, but a relative affinity compared to the affinity of primulin.
PHFs were isolated from the brain of an Alzheimer's disease patient essentially as described by Wischik et al. (Neurobiology of Aging, Vol. 16, pp. 409-431, 1995). The IFII fraction was isolated by centrifugation on a sucrose gradient as described in the PhD thesis of C. M. Wischik, and was further extracted into an ‘abc sup’ as described by C. M. Wischik (Thesis “The structure and biochemistry of paired helical filaments in Alzheimer's disease” Part I and II; Cambridge University, 1989).
The assay for ligand activity was performed in 96 well plates (Nunc Cat. No. 236108). The test compound at the required concentration was mixed with PHFs, then primulin was added to give a final concentration of 1 μM and a total volume of 100 μl. The concentration of PHFs added was determined for each preparation to give an adequate fluorescence signal, and was typically in the range 1-2 μl/100 μl. The test compounds were typically dissolved in DMSO to give a final concentration of 10% DMSO in the assay. The control fluorescence, in the absence of PHFs, was also measured in the presence of 10% DMSO.
The fluorescence was measured in a Varian Carey Eclipse Fluorescence Spectrophotometer, with the […] wavelength at 480 nm. Excitation spectra were recorded and corrected by subtraction of the signal measured in the absence of PHFs, using the Varian software. The fluorescence signal at the peak […] wavelength of 420 nm was measured from the corrected spectra. The fluorescence values were plotted as a function of concentration of test compound, and the value for P50 measured from the graph.
Consider `COc1ccc2nc(-c3ccc(/C=C/c4ccc(F)cc4)cc3)sc2c1` [BEFA-10], for which the P50 entry was “fl”.

`COc1ccc2nc(-c3ccc(/C=C/c4ccc(NC(=O)C(F)(F)F)cc4)cc3)sc2c1` [BEFA-06]: the P50 result is listed as “fl”.

`Cc1ccc2nc(-c3ccc(/C=C/c4ccc(N(C)C)cc4)cc3)sc2c1` [BEMA-08]: the P50 entry is on record as “fl”.

Staying with this assay, now noted: concentration that reduces the signal of 1 μM primulin to 50% of control; relative affinity.
On to `COc1ccc2nc(-c3ccc(NC(=O)c4ccc(OCC(F)(F)F)cc4)cc3)sc2c1` [ABFMA-19], for which the P50 result is on record as “no effect”.

In the case of `COc1ccc2nc(-c3ccc(NC(=O)c4ccc(F)cc4)cc3)sc2c1` [ABMFMA-01], the P50 entry is “no effect”.

As for `COc1ccc2nc(-c3ccc(/C=C/c4ccc(N)cc4)cc3)sc2c1` [BEMOA-06], the P50 entry is on record as “no effect”.

On to `COc1ccc2nc(-c3ccc(/C=C/c4ccc(NCCCC(F)(F)F)cc4)cc3)sc2c1` [BEFA-09], for which the P50 result is given as “no effect”.

As to `Cc1ccc2nc(-c3ccc(/C=C/c4ccccc4)cc3)sc2c1` [BEMA-01], the P50 entry was “no effect”.

Take `Cc1ccc2nc(-c3ccc(NC(=O)c4ccc(F)c(C(F)(F)F)c4)cc3)cn2c1` [AIPN-17]: the P50 result is “no effect”.

For the molecule `Cc1ccc2nc(-c3ccc(/C=C/c4ccc(O)cc4)cc3)sc2c1` [BEMA-11], the P50 result is reported as “no effect”.

Take `Cc1ccc2nc(-c3ccc(/C=C/c4cccc(N)c4)cc3)sc2c1` [BEMA-06]: the P50 result is on record as “no effect”.

`COc1ccc2nc(-c3ccc(NC(=O)c4ccc(N(C)C)cc4C(F)(F)F)cc3)sc2c1` [ABFMA-18]: the P50 entry is recorded as “no effect”.

For `Cc1ccc2nc(-c3ccc(NC(=O)c4cccc(N(C)C)c4)cc3)sc2c1` [ABAA-08], the P50 result is listed as “no effect”.

Take `Cc1ccc2nc(-c3ccc(/N=N/c4c(C(F)(F)F)cc(O)cc4C(F)(F)F)cc3)sc2c1` [BDF-08]: the P50 entry is on record as “no effect”.

For `Cc1ccc2nc(-c3ccc(NC(=O)c4ccncc4)cc3)cn2c1` [AIPN-03], the P50 result is listed as “no effect”.

As to `COc1ccc2nc(-c3ccc(NC(=O)c4cccc(C(F)(F)F)c4)cc3)sc2c1` [ABFMA-02], the P50 entry is on record as “no effect”.

`COc1ccc2nc(-c3ccc(NC(=O)c4ccc(C(F)(F)F)cc4)cc3)sc2c1` [ABFMA-03]: the P50 entry is “no effect”.

As for `O=C(Nc1ccc(-c2nc3ccc(O)cc3s2)cc1)c1ccc(OCCC(F)(F)F)cc1` [ABFHA-04], the P50 entry is on record as “no effect”.

For `COc1cc(NC(=O)c2ccccc2N(C)C)ccc1-c1nc2ccc(O)cc2s1` [ABHA-04], the P50 entry is listed as “no effect”.

Take `Cc1ccc2nc(-c3ccc(NC(=O)c4ccccc4N)cc3)sc2c1` [ABAA-04]: the P50 result was “no effect”.

The same assay, now with this note: concentration that reduces the signal of 1 μM primulin to 50% of control; relative affinity; read-out: P50.
Consider `COc1cccc2sc(-c3ccc(/N=N/c4ccc(O)cc4C(F)(F)F)cc3)nc12` [BDF-13], for which the IC50 was found to be 350 nM.

For `COc1c(F)cc(C(=O)Nc2ccc(-c3cn4cc(C)ccc4n3)cc2)cc1F` [AIPN-24], the IC50 was roughly 1000 nM.

Take `Nc1ccccc1C(=O)Nc1ccc(-c2nc3ccc(O)cc3s2)cc1` [ABHA-01]: the IC50 is 900 nM.

Regarding `CNc1ccc(C(=O)Nc2ccc(-c3cn4cc(C)ccc4n3)cc2)cc1` [AIPN-12], the IC50 was 330 nM.

Regarding `CNc1ccc(C(=O)Nc2ccc(-c3cn4cc(C)ccc4n3)cc2)cc1F` [AIPN-20], the IC50 came out at 270 nM.

For the molecule `COc1ccc2nc(-c3ccc(NC(=O)c4ccc(OC(C)=O)cc4)cc3)sc2c1` [ABMA-10], the IC50 is 310 nM.

For `COc1ccc2nc(-c3ccc(NC(=O)c4cccc(N)c4)cc3)sc2c1` [ABMA-05], the IC50 was 850 nM.

Regarding `Cc1ccc2nc(-c3ccc(NC(=O)c4ccccn4)cc3)cn2c1` [AIPN-05], the IC50 was determined as 510 nM.

Turning to `COc1ccc2nc(-c3ccc(NC(=O)c4ccc(Cl)nc4)cc3)sc2c1` [ABMFMA-03], the IC50 is 340 nM.

Consider `CNc1c(F)cc(C(=O)Nc2ccc(-c3cn4cc(C)ccc4n3)cc2)cc1F` [AIPN-21], for which the IC50 was 460 nM.

For the molecule `Cc1ccc2nc(-c3ccc(NC(=O)c4ccc(O)cc4)cc3)cn2c1` [AIPN-14], the IC50 stood at 500 nM.

For the molecule `Cc1ccc2nc(-c3ccc(NC(=O)c4ccc(NO)c(C(F)(F)F)c4)cc3)cn2c1` [AIPN-10], the IC50 stood at 180 nM.

In the case of `COc1ccc2nc(-c3ccc(NC(=O)c4ccc(Br)c([N+](=O)[O-])c4)cc3)sc2c1` [ABMFMA-08], the IC50 is greater than 1000 nM.

Consider `O=C(Nc1ccc(-c2nc3ccc(O)cc3s2)c(O)c1)c1cc(OC(F)(F)F)ccc1O` [ABFHA-06], for which the IC50 is 390 nM.

For the molecule `CN(C)CCOc1ccc2nc(-c3ccc(NC(=O)c4ccc([N+](=O)[O-])c(C(F)(F)F)c4)cc3)sc2c1` [ABDMAA-02], the IC50 is greater than 1000 nM.

Regarding `COc1ccc2nc(-c3ccc(/N=N/c4ccc(O)cc4C(F)(F)F)cc3)sc2c1` [BDF-03], the IC50 came to 130 nM.

Consider `Cc1ccc2nc(-c3ccc(NC(=O)c4cccc(O)c4)cc3)sc2c1` [ABAA-11], for which the IC50 is roughly 1200 nM.

On to `COc1ccc2nc(-c3ccc(NC(=O)c4cccc(N(C)C)c4)cc3)sc2c1` [ABMA-08], for which the IC50 was roughly 1200 nM.

As to `Cc1ccc2nc(-c3ccc(NC(=O)c4ccc(N)cc4)cc3)sc2c1` [ABAA-06], the IC50 was found to be 520 nM.

Turning to `COc1ccc2nc(-c3ccc(NC(=O)c4ccc(O)c([N+](=O)[O-])c4)cc3)sc2c1` [ABMA-13], the IC50 was determined as 310 nM.

Turning to `COc1ccc2nc(-c3ccc(NC(=O)c4ccc(F)nc4)cc3)sc2c1` [ABMFMA-02], the IC50 is 890 nM.

`Cc1ccc2nc(-c3ccc(NC(=O)c4ccc(N(C)C)cc4)cc3)cn2c1` [AIPN-02]: the IC50 worked out at 310 nM.

As to `COc1ccc2nc(-c3ccc(NC(=O)c4ccc(F)c([N+](=O)[O-])c4)cc3)sc2c1` [ABMFMA-05], the IC50 turned out to be 200 nM.

For `COc1ccc(C(=O)Nc2ccc(-c3cn4cc(C)ccc4n3)cc2)cc1` [AIPN-13], the IC50 stood at 630 nM.

For `COc1ccc2nc(-c3ccc(NC(=O)c4ccc(N)cc4)cc3)sc2c1` [ABMA-06], the IC50 came to 370 nM.

With `Oc1ccc(/N=N/c2ccc(-c3nc4ccc(O)cc4s3)c(O)c2)c(OCCCC(F)(F)F)c1` [BDF-15], the IC50 came to 140 nM.

On to `COc1cccc2sc(-c3ccc(/N=N/c4ccc(C(F)(F)F)cc4O)cc3)nc12` [BDF-12], for which the IC50 turned out to be 700 nM.

On to `Cc1ccc2nc(-c3ccc(NC(=O)c4ccc(N)cc4)cc3)cn2c1` [AIPN-11], for which the IC50 was 660 nM.

As to `Cc1ccc2nc(-c3ccc(/C=C/c4cccc(O)c4)cc3)sc2c1` [BEMA-10], the IC50 is roughly 1200 nM.

As for `Cc1ccc2nc(-c3ccc(NC(=O)c4ccccc4)cc3)sc2c1` [ABAA-10], the IC50 is roughly 1200 nM.

Consider `COc1ccc2nc(-c3ccc(NC(=O)c4ccc(I)c([N+](=O)[O-])c4)cc3)sc2c1` [ABMFMA-09], for which the IC50 was found to be 210 nM.

For the molecule `COc1ccc2sc(-c3ccc(/N=N/c4ccc(O)cc4C(F)(F)F)cc3)nc2c1` [BDF-11], the IC50 was 600 nM.

Take `Oc1ccc(/N=N/c2ccc(-c3nc4ccc(OC(F)(F)F)cc4s3)cc2)cc1` [BDF-07]: the IC50 is 720 nM.

In the case of `O=C(Nc1ccc(-c2nc3ccc(O)cc3s2)cc1)c1ccc(OCC(F)(F)F)cc1` [ABFHA-03], the IC50 is 100 nM.

As to `Oc1ccc(/N=N/c2ccc(-c3nc4ccc(O)cc4s3)cc2O)c(C(F)(F)F)c1` [BDF-16], the IC50 turned out to be 30 nM.

In the case of `CN(C)c1ccc2nc(-c3ccc(/N=N/c4ccc(O)cc4C(F)(F)F)cc3)sc2c1` [BDF-06], the IC50 worked out at 40 nM.

Regarding `Oc1ccc(/N=N/c2ccc(-c3nc4ccc(O)cc4s3)cc2O)c(OC(F)(F)F)c1` [BDF-17], the IC50 turned out to be 30 nM.
